Laboratory results as given in patent US20220280423A1, “GLYMPHATIC DELIVERY BY MANIPULATING PLASMA OSMOLARITY” (University of Rochester, priority 2018, published 2022).

Key:
glymphatic CSF influx [1] = assay: Transcranial macroscopic imaging of CSF tracer (BSA-647) influx, plasma hypertonicity in KX-anesthetized mice; assay type: in vivo, C57BL/6 mice
Experimental: Intracisternal injections. Mice in the KX groups were weighed and anesthetized with a mixture of ketamine (100 mg/kg, i.p.) and xylazine (10 mg/kg, i.p.). Afterwards, animals were fixed in a stereotaxic frame, and the cisterna magna was surgically exposed with the help of a stereomicroscope. The cisternal space was cannulated using a 30 G needle attached via polyethylene tubing to a Hamilton syringe. The needle was secured with cyanoacrylate glue and tracers were infused with a syringe pump (Harvard Apparatus) depending on the experimental paradigm (see below). Mice randomized to the awake group were anesthetized with 2% isoflurane, their skull cemented to a customized head plate, placed in a restraint tube, and then underwent the same surgical procedure as described above. Tracers were allowed to circulate for 30 min after the injection start time and the needle left in place for the duration of the experiment to prevent the CSF compartment from depressurizing. Core temperature (37° C.) and anesthetic depth were maintained throughout the experiment. At the end of 30 min, animals were decapitated, and the brain processed for either fluorescent or radioisotope tracer analysis.
CSF Tracers. AlexaFluor647-conjugated bovine serum albumin (BSA-647, 66 kDa, Invitrogen) was constituted in artificial CSF (0.5% m/v) and used as a fluorescent CSF tracer. […] Fluorescent tracers and antibodies were infused in a total volume of 10 μl at a rate of 2 μl/min or 1 μl/min into the cisterna magna.
Transcranial In vivo Macroscopic Imaging. For in vivo imaging, the skin covering the dorsal calvarium was incised and reflected laterally prior to cannulating the cisterna magna. The entry of CSF tracers into the brain was imaged by fluorescence macroscopy (MVX10, Olympus) using a PRIOR Lumen 1600-LED light source and Flash 4.0 digital camera (Hamamatsu). The mouse fixed on the stereotaxic frame was placed on the microscope stage and images at 20× magnification were acquired in the far-red emission channel (647 nm). Images (2048×2048 pixel; 5.7120 μm/pixel) were collected at 1 min intervals for 0-30 min following injection commencement using the MetaMorph Basic imaging software (Molecular Devices). Exposure time was held constant throughout the duration of the imaging sequence and across experimental groups.
Front tracking. To quantify the area and speed of fluorescent CSF tracer influx in the brain, inventors employed an algorithm recently developed in the context of advection-reaction-diffusion (56). Given a time series of a two-dimensional concentration field, this algorithm tracked the location of the “front” which separates low-concentration and high-concentration regions. The algorithm outputs spatially- and temporally-resolved velocity measurements quantifying the front propagation. Influx speed was calculated by averaging over the entire group data to obtain mean front speed measurements for each group. The propagation front was identified using a threshold of 175 (on an 8-bit scale of 0 to 255); however, it was noted that the results were fairly robust to different threshold choices. This same threshold was used for all-time series of images, which was justified since care was taken to maintain similar imaging conditions across all experiments. A fixed threshold preserved the physical meaning of the front and allowed for quantitative comparison between populations from different experiments.
Solutions. Control mice received isosmotic saline (0.34M NaCl in ddH2O; 20 μL/g, i.p.).

glymphatic CSF influx [2] = assay: Transcranial macroscopic imaging of CSF tracer (BSA-647) influx, plasma hypertonicity in awake mice; assay type: in vivo, C57BL/6 mice
Experimental: Intracisternal injections. Mice in the KX groups were weighed and anesthetized with a mixture of ketamine (100 mg/kg, i.p.) and xylazine (10 mg/kg, i.p.). Afterwards, animals were fixed in a stereotaxic frame, and the cisterna magna was surgically exposed with the help of a stereomicroscope. The cisternal space was cannulated using a 30 G needle attached via polyethylene tubing to a Hamilton syringe. The needle was secured with cyanoacrylate glue and tracers were infused with a syringe pump (Harvard Apparatus) depending on the experimental paradigm (see below). […]
Transcranial In vivo Macroscopic Imaging. […] The entry of CSF tracers into the brain was imaged by fluorescence macroscopy (MVX10, Olympus) using a PRIOR Lumen 1600-LED light source and Flash 4.0 digital camera (Hamamatsu). […]
Front tracking. To quantify the area and speed of fluorescent CSF tracer influx in the brain, inventors employed an algorithm recently developed in the context of advection-reaction-diffusion (56). […] The algorithm outputs spatially- and temporally-resolved velocity measurements quantifying the front propagation. Influx speed was calculated by averaging over the entire group data to obtain mean front speed measurements for each group. […] A fixed threshold preserved the physical meaning of the front and allowed for quantitative comparison between populations from different experiments. […]

BBB = assay: Assessment of BBB permeability (FITC-dextran extravasation); assay type: in vivo, C57BL/6 mice; settings: anesthetized mice, 30 min after i.p. injection
Experimental: Assessment of BBB Permeability. For quantification of BBB disruption, a 1% solution of FITC-conjugated dextran (70 kDa; Sigma-Aldrich) in normal saline (4 mL/kg of body weight) was injected via the femoral vein. The dextran was allowed to circulate for 30 min following plasma tonicity manipulations, at which point a plasma sample was taken and the mice were perfusion-fixed as described below. Positive controls received a 2M mannitol infusion via a catheter in the right external carotid artery (0.64 mL/min for 30 seconds) 5 minutes after the dextran. The brains were harvested, sectioned, and FITC extravasation was imaged and quantified (see below). Plasma concentration of the FITC dextran was calculated by diluting the plasma samples 1:4 with PBS and analyzing them in triplicate on a fluorescence microplate reader (SpectraMax M2, Molecular Devices) at 458 nm excitation, 538 nm emission, with a cutoff above 530 nm at room temperature (24° C.). Dextran concentration was estimated by comparing the relative fluorescence of the samples against a standard curve (0.0-1.0 mg/mL, 0.1 mg/mL steps; FITC-dextran 70 kDa in PBS) fitted with a linear regression. Blood samples with hemolysis were excluded from analysis due to interference with spectrophotometric absorbance readings.
Image Analysis. All images were analyzed using ImageJ software (National Institutes of Health, imagej.nih.gov/ij/) (60). […]

[3] = Intracranial pressure, arterial blood pressure and laser Doppler cerebral blood flow; assay type: in vivo, C57BL/6 mice
Text: Intracranial and Arterial Blood Pressure Measurements. A separate group of animals were anesthetized with a mixture of ketamine/xylazine. Afterwards, a 30 G needle connected to rigid polyethylene tubing filled with aCSF was inserted into the cisterna magna as described above and an arterial catheter was placed in the femoral artery. The lines were connected to a pressure transducer and monitor (World Precision Instruments). Recordings were allowed to stabilize, and then recorded continuously for 35 min (5 min baseline and 30 min after i.p. injection). The signals were digitized and recorded with a DigiData 1440A digitizer and AxoScope software (Axon Instruments). The intracranial and mean arterial pressure recordings were processed and analyzed using MATLAB (MathWorks).
Laser Doppler Flowmetry. Relative changes in cerebral blood flow (rCBF) were measured using laser Doppler flowmetry (PF5010 Laser Doppler Perfusion Module with microtips, PR 418-1, Perimed). The tip of the fiber optic probe was fixed directly onto the exposed skull with cyanoacrylate glue. Signals were collected using a 1440A digitizer and AxoScope software (Axon Instruments). For each mouse, rCBF was recorded both 5 minutes before and 30 minutes after the administration of i.p. solutions. The rCBF recordings were processed and analyzed using MATLAB (MathWorks).
Consequently, assays were carried out to determine if tonicity-induced changes in one of these parameters might be responsible for the observed enhancement of glymphatic CSF influx. […] This net negative ICP resulted from the outflow of ISF across the BBB (FIG. 15D), and likely provided the necessary driving force to increase CSF influx to cerebral tissues. Importantly. this transfer of brain water to the vascular column occurred across an intact BBB (FIGS. 12A-C).

[4] = Plasma osmolality after intraperitoneal injection; assay type: in vivo, C57BL/6 mice; settings: i.p., KX-anesthetized mice, lasting 30 minutes
Experimental: Solutions. Control mice received isosmotic saline ([…]; 20 μL/g, i.p.). Hyperosmolality was induced either with mannitol (1M in 0.34M NaCl; 30 μL/g, i.p.) or hypertonic saline (1M NaCl in ddH2O; 20 μL/g, i.p.). Thirty minutes after intraperitoneal injection, a plasma sample was taken, and the mouse decapitated. Plasma osmolality was measured in triplicate using a micro-osmometer (Advanced Instruments).

[5] = Radioisotope influx (brain uptake of CSF-delivered tracers); settings: 30 min
Experimental: Fluorescent tracers and antibodies were infused in a total volume of 10 μl at a rate of 2 μl/min or 1 μl/min into the cisterna magna. Radioisotope tracers were infused in a total volume of 5 μl at 1 μl/min.
Radioisotope Influx. […] After 30 min, animals were rapidly decapitated, the skull and dura removed, and the brain harvested. Brain radioactivity was normalized to the total radioactivity detected in a 5 μL aliquot put directly into a scintillation vial immediately before intracisternal injection. All brain tissue was weighed and solubilized in 0.5 mL tissue solubilizer (Solvable, PerkinElmer) overnight. Upon solubilization, 5 mL of scintillation cocktail was added (Ultima Gold, PerkinElmer). The injectate controls were treated in the same way as the tissue samples. All samples were analyzed by liquid scintillation spectrometry using a scintillation counter (LS 6500 Multipurpose Scintillation Counter, Beckman Coulter). The radioactivity (disintegrations per minute: dpm) remaining in the brain after injection (percent of injected dose: %ID) was determined as
where Rb is the radioactivity remaining in the brain at the end of the experiment and Ri is the radioactivity in the injectate controls for each experiment. Influx percentage was deduced as % ID. […]

| BBB permeability (BBB) | Molecule | reduction of the time to delivery of CSF tracer (glymphatic CSF influx [1]; KX-anesthetized mice, i.p.) | dorsal cortical surface covered by CSF tracer (glymphatic CSF influx [1]; KX-anesthetized mice, i.p., 30 min imaging) | increase in the influx area of CSF tracer (glymphatic CSF influx [1]; KX-anesthetized mice, i.p., vs isotonic controls) | penetration of an intracisternally-delivered CSF tracer (glymphatic CSF influx [1]; intraperitoneal) | increase of influx speeds of CSF tracer (glymphatic CSF influx [1]; intraperitoneal, intracisternally-delivered CSF tracer) | tracer influx rates across the entire dorsal cortex, faster than isotonic (glymphatic CSF influx [2]) | increase in tracer influx area (glymphatic CSF influx [2]; at 30 min) | relative cerebral blood flow (rCBF) ([3]; 30-min recording after i.p.) | ICP relative to the isotonic controls ([3]; 30 min after i.p.) | mean arterial blood pressure (MAP) ([3]; anesthetized mice, i.p.) | plasma osmolality [4] | increase in the fractional tracer uptake to brain ([5]; plasma hyperosmolality (HTS or mannitol i.p.) vs isotonic) | total injected tracer delivered to the brain parenchyma ([5]; plasma hyperosmolality (HTS or mannitol i.p.)) |
| --- | --- | --- | --- | --- | --- | --- | --- | --- | --- | --- | --- | --- | --- | --- |
| no significant increase | OC[C@@H](O)[C@@H](O)[C@H](O)[C@H](O)CO [mannitol] | roughly half | approximately 60% | five-fold | doubled | about 70% | roughly 1.5 fold | circa 20 fold | slight reduction | significantly and consistently declined | reduced | significantly elevated | – | – |
| – | ^14C-inulin | – | – | – | – | – | – | – | – | – | – | – | roughly 125% | approximately 40% |
